Experimental findings from patent US20100273748A1, “ANTIMICROBIAL THERAPY” (priority 2006, published 2010) are described below.

For one data set, the system named is TLR2 protein. The data set can be described thus: Western blot of keratinocyte extracts. It counts as cell-based, human. Particulars: 1,25D3 100 nM, monolayer keratinocyte extracts. On the procedure:
(§1) Western Blot. Primary keratinocytes were stimulated with 1,25D3 (100 nM) or the vehicle for 24 hours and subsequently lysed in ice-cold lysis buffer (1% Triton-X in PBS containing proteinase inhibitors). After centrifugation, equal amounts of protein were mixed with loading buffer (0.25M Tris HCL, 10% SDS, 10% glycerol, 5% β-mercaptoethanol) and loaded onto a 10% Tris-Tricine gel (GeneMate, Kaysville, Utah). After separation, proteins were blotted onto a PVDF membrane (Millipore, Billerica, Mass.) and blocked in 5% milk (BioRad) in TBS 0.1% Tween20 for 1 h at RT. After washings in TBS 0.1% Tween20, membranes were stained with a rabbit polyclonal anti-CD14 (Abcam, Cambridge, Mass.) or an anti TLR2 antibody (eBioscience), washed again in TBS 0.1% Tween20 and reprobed with a HRP-coupled goat anti-rabbit antibody (DakoCytomation, Glostrup, Denmark). Stained protein was visualized using the Western Lightning® system (Perkin Elmer, Boston, Mass.).
In general terms: A western blot detects proteins with antibodies after separation by electrophoresis.

Another data set relates to CD14 protein. Kind of data set: Western blot of keratinocyte extracts. It counts as cell-based, human. On the procedure: as §1, with “Primary keratinocytes were stimulated with 1,25D3 (100 nM) or the vehicle for 24 hours and subsequently lysed in ice-cold lysis buffer (1% Triton-X in PBS containing proteinase inhibitors).” left out
The next data set has as its system CD14. The data set can be described thus: qPCR in differentiated epidermal constructs. The settings on record: 1,25D3 100 nM. It counts as cell-based, human. The protocol: (§2) Organotypic culture. Epiderm™ human skin-like tissue constructs were obtained from MatTek (Ashland, Mass.) and cultured according to manufacturer's instructions. Skin constructs were cultured in maintenance media (EPI-100-MM, MatTek) and stimulated with Malp-2 (0.1 μg/ml) for 24 hours in the presence of 1,25D3 (100 nM). Skin constructs were cut after stimulation and transferred to Trizol® (Invitrogen, Carlsbad, Calif.) for RNA extraction or immediately frozen in Tissue-Tek® (Sakura, Torrance, Calif.) for immunostaining.
(§3) Real-time RT-PCR (qPCR). RNA was extracted from cells, epidermal constructs or tissue using Trizol® and 1 μg RNA was reverse transcribed using iScript® (BioRad, Hercules, Calif.). Expression of cathelicidin and GAPDH was analysed by real-time RT-PCR. […] Fold induction relative to the vehicle treated control in in vitro experiments was calculated using the comparative Ct method, where ΔΔCt is ΔCt(stimulant)-ΔCt(vehicle), ΔCt is Ct(gene)-Ct(GAPDH) and Ct is the cycle at which an arbitrary detection threshold is crossed. For quantification of transcript abundance in tissue samples target gene expression was normalized to GAPDH and compared to non-treated or non-injured skin.

The subject of a further data set is TLR2. The data set can be described thus: qPCR in differentiated epidermal constructs. The class given is cell-based, human. Particulars: 1,25D3 100 nM. The protocol:
as §2, §3
(In general: In qPCR the cycle at which signal appears reflects the starting amount.)

A short description of data set [1]: Topical treatment of healthy volunteers' skin, clinical and histological inflammation. The class given is in vivo, human. Particulars: single topical application of 1,25D3. The protocol:
Patients and treatments. Human skin wounds were collected following informed consent by inducing 5 mm full-thickness wounds in volunteers (n=5) under aseptic conditions with local anesthesia as described. At 24 hours after incision, 4 mm punch biopsies were taken from the site of injury and immediately fixed in formalin for immunostaining or frozen in liquid N2 for subsequent RNA isolation. Intact skin from healthy volunteers served as control (n=4). To examine the effects of topical 1,25D3, healthy skin of volunteers (n=7) was treated once topically with 1,25D3 (1.0 mM) and left under occlusion for 4 days. Vehicle treated contralateral skin served as a control. After treatment, skin biopsies were obtained from both sites, fixed in formalin 10% and embedded in paraffin for immunostaining. All treatments and sample acquisitions, including skin biopsies, were approved by the committees on investigations involving human subjects.

Molecules are shown by their SMILES.

As for `C=C1/C(=C\C=C2/CCC[C@]3(C)[C@@H]([C@H](C)CCCC(C)(C)O)CC[C@@H]23)C[C@@H](O)C[C@@H]1O` [1,25D3, 1,25(OH)2 vitamin D3], in the data set on TLR2 protein, the “TLR2 protein expression (Western Blot)” value was “increases expression”. The “CD14 protein expression (Western blot)” value is reported as “increases expression” in the data set on CD14 protein (1,25D3 100 nM, monolayer keratinocyte extracts); “increase in CD14 protein expression” in the data set on CD14 protein (1,25D3 10^−8M and butyrate 2 mM, 24 hours). Moreover, the CD14 transcript abundance entry in the data set with CD14 is reported as “show an increase”. The TLR2 transcript abundance result in the data set with TLR2 was “show an increase”. For the same compound, the “clinical or histological evidence of inflammation” value in data set [1] is on record as “did not induce clinical or histological evidence of inflammation”.
